Patent US10745429B2, “Phospholidines that are Bcl family antagonists for use in clinical management of conditions caused or mediated by senescent cells and for treating cancer” (Unity Biotechnology, Inc., priority 2018, dated 2020)

Key:
[1] = tested on: C57BL/6J mice with osteoarthritis induced by ACL surgery; assay: Osteoarthritis model: anterior cruciate ligament surgery, intra-articular treatment; assay type: in vivo, mouse
Protocol: The model was implemented as follows. C57BL/6J mice underwent surgery to cut the anterior cruciate ligament of one rear limb to induce osteoarthritis in the joint of that limb. During week 3 and week 4 post-surgery, the mice were treated with 5.8 μg of Nutlin-3A (n=7) per operated knee by intra-articular injection, q.o.d. for 2 weeks. At the end of 4 weeks post-surgery, joints of the mice were monitored for presence of senescent cells, assessed for function, monitored for markers of inflammation, and underwent histological assessment.
Two control groups of mice were included in the studies performed: one group comprising C57BL/6J or 3MR mice that had undergone a sham surgery (n=3) (i.e., surgical procedures followed except for cutting the ACL) and intra-articular injections of vehicle parallel to the GCV (ganciclovir) treated group; and one group comprising C57BL/6J or 3MR mice that had undergone an ACL surgery and received intra-articular injections of vehicle (n=5) parallel to the GCV-treated group. RNA from the operated joints of mice from the Nutlin-3A treated mice was analyzed for expression of SASP factors (mmp3, IL-6) and senescence markers (p16). qRT-PCR was performed to detect mRNA levels.
Function of the limbs was assessed 4 weeks post-surgery by a weight bearing test to determine which leg the mice favored. The mice were allowed to acclimate to the chamber on at least three occasions prior to taking measurements. Mice were maneuvered inside the chamber to stand with one hind paw on each scale. The weight that was placed on each hind limb was measured over a three second period. At least three separate measurements were made for each animal at each time point. The results were expressed as the percentage of the weight placed on the operated limb versus the contralateral unoperated limb.

[2] = tested on: 3MR and INK-ATTAC mice exposed to cigarette smoke; assay: Cigarette smoke induced COPD model, pulse oximetry; assay type: in vivo, mouse; settings: after two months of cigarette smoke exposure, compared with untreated controls; FIG. 8
Protocol: As a model for chronic obstructive pulmonary disease (COPD), mice were exposed to cigarette smoke.
The effect of a senolytic agent on the mice exposed to smoke is assessed by senescent cell clearance, lung function, and histopathology.
The mice used in this study include the 3MR strain, described in US 2017/0027139 A1 and in Demaria et al., Dev Cell. 2014 Dec. 22; 31(6): 722-733. The 3MR mouse has a transgene encoding thymidine kinase that converts the prodrug ganciclovir (GCV) to a compound that is lethal to cells. The enzyme in the transgene is placed under control of the p16 promoter, which causes it to be specifically expressed in senescent cells. Treatment of the mice with GCV eliminates senescent cells.
Other mice used in this study include the INK-ATTAC strain, described in US 2015/0296755 A1 and in Baker et al., Nature 2011 Nov. 2; 479(7372):232-236. The INK-ATTAC mouse has a transgene encoding switchable caspase 8 under control of the p16 promoter. The caspase 8 can be activated by treating the mice with the switch compound AP20187, whereupon the caspase 8 directly induces apoptosis in senescent cells, eliminating them from the mouse.
To conduct the experiment, six-week-old 3MR (n=35) or INK-ATTAC (n=35) mice were chronically exposed to cigarette smoke generated from a Teague TE-10 system, an automatically-controlled cigarette smoking machine that produces a combination of side-stream and mainstream cigarette smoke in a chamber, which is transported to a collecting and mixing chamber where varying amounts of air is mixed with the smoke mixture. The COPD protocol was adapted from the COPD core facility at Johns Hopkins University (Rangasamy et al., 2004, J. Clin. Invest. 114:1248-1259; Yao et al., 2012, J. Clin. Invest. 122:2032-2045).
Mice received a total of 6 hours of cigarette smoke exposure per day, 5 days a week for 6 months. Each lighted cigarette (3R4F research cigarettes containing 10.9 mg of total particulate matter (TPM), 9.4 mg of tar, and 0.726 mg of nicotine, and 11.9 mg carbon monoxide per cigarette [University of Kentucky, Lexington, Ky.]) was puffed for 2 seconds and once every minute for a total of 8 puffs, with the flow rate of 1.05 L/min, to provide a standard puff of 35 cm3. […] The smoke chamber atmosphere was monitored for total suspended particulates (80-120 mg/m3) and carbon monoxide (350 ppm). […]
After two months of cigarette smoke (CS) exposure, lung function was assessed by monitoring oxygen saturation using the MouseSTAT PhysioSuite™ pulse oximeter (Kent Scientific). […] Mice were monitored for 30 seconds and the average peripheral capillary oxygen saturation (SpO2) measurement over this duration was calculated.

[3] = tested on: LDLR-/- mice fed a high fat diet; assay: Atherosclerosis model, LDLR-/- mice on a high fat diet, systemic treatment; assay type: in vivo, mouse
Protocol: This example illustrates the testing of an MDM2 inhibitor in a mouse model for treatment of atherosclerosis. The test compounds are administered systemically rather than locally. The model is done in an LDLR−/− strain of mice, which are deficient in the receptor for low-density lipoprotein. The experiments described here can be adapted mutatis mutandis to test and develop other types of inhibitors for use in clinical therapy.
Two groups of LDLR−/− mice (10 weeks) are fed a high fat diet (HFD) (Harlan Teklad TD.88137) having 42% calories from fat, beginning at Week 0 and throughout the study. Two groups of LDLR−/− mice (10 weeks) are fed normal chow (−HFD). From weeks 0-2, one group of HFD mice and −HFD mice are treated with Nutlin-3A (25 mg/kg, intraperitoneally). One treatment cycle is 14 days treatment, 14 days off. Vehicle is administered to one group of HFD mice and one group of −HFD mice. At week 4 (timepoint 1), one group of mice are sacrificed and to assess presence of senescent cells in the plaques. For the some of the remaining mice, Nutlin-3A and vehicle administration is repeated from weeks 4-6. At week 8 (timepoint 2), the mice are sacrificed and to assess presence of senescent cells in the plaques. The remaining mice are treated with Nutlin-3A or vehicle from weeks 8-10. At week 12 (timepoint 3), the mice are sacrificed and to assess the level of plaque and the number of senescent cells in the plaques.
Plasma lipid levels were measured in LDLR−/− mice fed a HFD and treated with Nutlin-3A or vehicle at timepoint 1 as compared with mice fed a −HFD (n=3 per group). Plasma was collected mid-afternoon and analyzed for circulating lipids and lipoproteins.
At the end of timepoint 1, LDLR−/− mice fed a HFD and treated with Nutlin-3A or vehicle were sacrificed (n=3, all groups), and the aortic arches were dissected for RT-PCR analysis of SASP factors and senescent cell markers. Values were normalized to GAPDH and expressed as fold-change versus age-matched, vehicle-treated LDLR−/− mice on a normal diet.
At the end of timepoint 2, LDLR−/− mice fed a HFD and treated with Nutlin-3A or vehicle (n=3 for all groups) were sacrificed, and aortic arches were dissected for RT-PCR analysis of SASP factors and senescent cell markers. Values were normalized to GAPDH and expressed as fold-change versus age-matched, vehicle-treated LDLR−/− mice on a normal diet.
At the end of timepoint 3, LDLR−/− mice fed a HFD and treated with Nutlin-3A or vehicle (n=3 for all groups) were sacrificed, and aortas were dissected and stained with Sudan IV to detect the presence of lipid. Body composition of the mice was analyzed by MRI, and circulating blood cells were counted by Hemavet™.

[4] = tested on: primary cells from patients with B-cell malignancies; settings: in vitro studies; cited from earlier work
[5] = tested on: cancer cells in human patients; settings: cited from earlier work

COc1ccc(C2=N[C@@H](c3ccc(Cl)cc3)[C@@H](c3ccc(Cl)cc3)N2C(=O)N2CCNC(=O)C2)c(OC(C)C)c1 [Nutlin-3A]
presence of senescent cells in the joint ([1]; 5.8 μg per operated knee intra-articular, 4 weeks post-surgery): cleared senescent cells from the joint | weight bearing test: weight placed on the operated limb versus the contralateral unoperated limb ([1]; 4 weeks post-surgery, effect = favoring the unoperated hind limb, FIG. 6A): abrogated this effect | histopathology of joint tissue: destruction of the proteoglycan layer ([1]; effect = proteoglycan layer destroyed by ACL surgery, FIGS. 6B-6D): completely abrogated this effect | expression of p16 in the tissue (mRNA, qRT-PCR) ([1]; operated joints, 5.8 μg per operated knee intra-articular q.o.d. for 2 weeks, 4 weeks post-surgery, FIG. 5A): reduced the expression back to below the level of the controls | expression of IL-6 in the tissue (mRNA, qRT-PCR) ([1]; operated joints, 5.8 μg per operated knee intra-articular q.o.d. for 2 weeks, 4 weeks post-surgery, FIG. 5B): reduced the expression back to below the level of the controls | expression of MMP13 in the tissue (mRNA, qRT-PCR) ([1]; operated joints, 5.8 μg per operated knee intra-articular q.o.d. for 2 weeks, 4 weeks post-surgery, FIG. 5C): reduced the expression back to below the level of the controls | peripheral capillary oxygen saturation (SpO2) levels [2]: statistically significant increases | expression of SASP factors and senescent cell markers MMP3, MMP13, PAI1, p21, IGFBP2, IL-1A, IL-1B in the aortic arch (RT-PCR) ([3]; 25 mg/kg intraperitoneally, timepoint 1 (week 4), after one treatment cycle): reduced expression of several SASP factors and senescent cell markers | expression of SASP factors and senescent cell markers in the aortic arch (RT-PCR) ([3]; 25 mg/kg intraperitoneally, timepoint 2 (week 8), multiple treatment cycles): reduced expression of most markers | reduction of the surface area covered by plaques in the descending aorta (Sudan IV) ([3]; 25 mg/kg intraperitoneally, timepoint 3 (week 12), FIG. 9): about 45% | body fat composition of mice fed the high fat diet (MRI) ([3]; timepoint 3 (week 12)): decreased | mass of mice fed the high fat diet ([3]; timepoint 3 (week 12)): decreased | lymphocyte counts versus vehicle treated mice ([3]; timepoint 3 (week 12), Hemavet): equivalent | platelet counts versus vehicle treated mice ([3]; timepoint 3 (week 12), Hemavet): equivalent

CC[C@H](C(=O)N1CCCC[C@H]1C(=O)O[C@H](CCc1ccc(OC)c(OC)c1)c1cccc(OCC(=O)NCC(CNC(=O)COc2cccc([C@@H](CCc3ccc(OC)c(OC)c3)OC(=O)[C@@H]3CCCCN3C(=O)[C@@H](CC)c3cc(OC)c(OC)c(OC)c3)c2)CN(C)C)c1)c1cc(OC)c(OC)c(OC)c1 [AP2018]
peripheral capillary oxygen saturation (SpO2) levels [2]: statistically significant increases

CC1(C)CCC(c2ccc(Cl)cc2)=C(CN2CCN(c3ccc(C(=O)NS(=O)(=O)c4ccc(N[C@H](CCN5CCOCC5)CSc5ccccc5)c(S(=O)(=O)C(F)(F)F)c4)cc3)CC2)C1 [ABT-263]
peripheral capillary oxygen saturation (SpO2) levels [2]: statistically significant increases

Nc1nc(O)c2ncn(COC(CO)CO)c2n1 [ganciclovir]
peripheral capillary oxygen saturation (SpO2) levels [2]: statistically significant increases

CN(C)CC[C@H](CSc1ccccc1)Nc1ccc(S(=O)(=O)NC(=O)c2ccc(N3CCN(Cc4ccccc4-c4ccc(Cl)cc4)CC3)cc2)cc1[N+](=O)[O-] [ABT-737]
sensitivity of primary cells from patients with B-cell malignancies [4]: sensitive | efficacy against cancer cells in human patients [5]: effective against some types of cancer cells
